Measurements taken from patent publication US11980633B2, “Method for treating cancer using a combination of DNA-damaging agents and DNA-PK inhibitors” (Vertex Pharmaceuticals Incorporated, priority 2016, dated 2024).

System: pKAP1 and pH2AX levels in DU4475 breast cancer cells
Experiment: pKAP1 and pH2AX immunoblot, Compound B-2 and doxorubicin in DU4475 breast cancer cells
Format: cell-based, human
Settings: for pH2AX level, max enhancement vs doxorubicin alone: at 12 h
Method: Materials and Methods. The human cancer cell lines A549 (CCL-185), DU4475 (HTB-123), MDA-MB-436 (HTB-130), and MDA-MB-468 (HTB-132) were obtained from American Type Culture Collection (ATCC; Manassas, VA). A 10 mM stock solution of Compound B-1 or Compound B-2 was prepared in DMSO and stored at −20° C. Etoposide and doxorubicin were purchased from Sigma-Aldrich (St. Louis, MO).
The A549 human lung cancer cell line was purchased from ATCC and was cultured in DMEM supplemented with 10% fetal bovine serum, 1× non-essential amino acids and 1× Penicillin/Streptomycin (complete medium). Cells were maintained at a subconfluent state by passaging every 2-3 days. Human breast cancer cells lines DU4475, MDA-MB-436, and MDA-MB-468 were purchased from ATCC and cultured in DMEM supplemented with 10% fetal bovine serum, 1× Glutamax and Penicillin/Streptomycin. Cells were maintained at a subconfluent state by passaging every 2-3 days.
Compound B-1 and Compound B-2 used in these experiments were not prepared as a co-crystals.
Breast cancer cell lines grown in 24-well (Costar, catalog #3526) or 6-well (Costar, catalog #3516) tissue culture plates to 70-80% confluence were pre-incubated with 1 μM Compound B-2 or DMSO for 15 min. Doxorubicin was added to a final concentration of either 100 nM or 500 nM from a 1000× stock prepared in DMSO. Cells were then incubated for the indicated amount of time and harvested for analysis.
Cell Lysis and Western Blot Analysis. Cells treated with Compound B-1 or Compound B-2 in combination with chemotherapeutic agents were washed once with ice-cold PBS and then dissolved in 150 μL/well 2×SDS-PAGE sample buffer, transferred to microfuge tubes, and heated in a 105° C. heat block for 5 min for immunoblotting. A 15-μL aliquot of each SDS-PAGE sample was loaded onto 12-lane 4 20% Tris-Glycine gels and the gels were run at 125v constant voltage until the dye front reached the bottom (approximately 2 h). Following electrophoresis, separated proteins in the gels were transferred to a nitrocellulose membrane. Transfer was carried out for 2 h at 1.5 A constant current in a cold room using a Hoefer transfer apparatus (Model TE42 or TE62, Hoefer Inc, Holliston, MA) according to manufacturer's instructions. Following transfer, nitrocellulose membranes were incubated with blocking buffer for 1 h at room temperature. The nitrocellulose membranes were cut and the bottom halves were incubated overnight with 2 primary antibodies, anti-pH2AX (1/1000) and anti-total H2AX (1/1000). After washing, the appropriate fluorescently labeled secondary antibodies were added to the membranes and then imaged with pH2AX on the 800 (green) channel and total H2AX on the 700 (red) channel. The top halves of the membranes were probed sequentially for pKAP1 (1/1000) on the 700 (red) channel and then probed for total KAP1 (1/1000) and GAPDH (1/2500) on the 800 (green) channel. Image acquisition was conducted using an Odyssey fluorescent imaging system (Li-Cor Biosciences; Lincoln, NE).
Compound B-2 and doxorubicin combination in breast cancer cell lines in culture. To examine the effect of DNA-PK inhibition on pKAP1 and pH2AX in vitro, DU4475 breast cancer cells were pre-incubated with 1 μM Compound B-2 for 15 min, followed by addition of 100 nM or 500 nM doxorubicin. Cells were harvested at various time points following doxorubicin addition and analyzed for levels of pKAP1 and pH2AX by immunoblotting.

Compound: [2H]c1nc(C)nc([2H])c1-c1cc(NC[C@@H](C)c2cccc3c(C(=O)NC)ccnc23)ncn1 [Compound B-2]
- pKAP1 level, max enhancement vs doxorubicin alone (1 μM Compound B-2 + 100 nM doxorubicin, at 12-24 h): 37-42 fold
- pH2AX level, max enhancement vs doxorubicin alone (1 μM Compound B-2 + 100 nM doxorubicin): 2 fold
- pKAP1 level, max enhancement vs doxorubicin alone (1 μM Compound B-2 + 500 nM doxorubicin, at 8 h): 19 fold
- pH2AX level, max enhancement vs doxorubicin alone (1 μM Compound B-2 + 500 nM doxorubicin): 1.6 fold
